Results on 29 compounds are retold here after US7501430B2 (ArQule, Inc., priority 2006, dated 2009).

The target in this experiment is T1, mutant B-RAF (Homo sapiens, UniProt P15056, V600E).
T1 construct: purchased Upstate (Charlottesville, Va.)
As to the kind of experiment: RAF biochemical assay (MEK-1 phosphorylation, anti-phospho MEK1/2 detection). The note with it: for inhibition at 10 µM: read-out: Mutant B-RAF % inhibition; for IC50: read-out: Mutant B-RAF IC50. In outline: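 Detection is by ELISA: after a 30 min room-temperature reaction, plate-captured GST-MEK-1 is probed with anti-phospho MEK1/2, then an AP-tagged secondary antibody with fluorescent Attophos read-out.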

T1 sequence (P15056 whole entry V600E): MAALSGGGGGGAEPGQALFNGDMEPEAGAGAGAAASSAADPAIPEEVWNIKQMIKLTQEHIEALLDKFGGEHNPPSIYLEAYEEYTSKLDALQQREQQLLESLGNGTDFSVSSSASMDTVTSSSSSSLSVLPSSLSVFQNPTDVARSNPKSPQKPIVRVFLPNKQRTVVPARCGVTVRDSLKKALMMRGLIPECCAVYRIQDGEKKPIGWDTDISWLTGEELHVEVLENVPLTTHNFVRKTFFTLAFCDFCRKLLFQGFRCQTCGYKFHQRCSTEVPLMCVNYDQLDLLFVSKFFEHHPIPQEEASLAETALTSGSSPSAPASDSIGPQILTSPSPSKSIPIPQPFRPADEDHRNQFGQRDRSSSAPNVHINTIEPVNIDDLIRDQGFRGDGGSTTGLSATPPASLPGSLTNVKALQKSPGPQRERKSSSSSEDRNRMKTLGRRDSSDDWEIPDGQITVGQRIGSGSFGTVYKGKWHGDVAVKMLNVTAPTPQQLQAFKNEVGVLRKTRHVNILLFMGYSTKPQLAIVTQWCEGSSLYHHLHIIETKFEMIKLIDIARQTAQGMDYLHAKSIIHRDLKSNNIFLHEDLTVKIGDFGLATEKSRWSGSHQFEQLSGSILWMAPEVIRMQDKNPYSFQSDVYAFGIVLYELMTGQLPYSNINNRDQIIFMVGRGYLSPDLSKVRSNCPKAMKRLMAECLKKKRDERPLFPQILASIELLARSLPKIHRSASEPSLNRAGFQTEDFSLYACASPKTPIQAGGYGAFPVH

One may read the inhibition as how much of the control response was suppressed. Take `CC(=O)NCC(=O)N1CCC(Nc2nccc(-c3c(-c4ccc(F)cc4)nc4occn34)n2)CC1` [Example 211, N-{2-[4-({4-[6-(4-fluorophenyl)imidazo[2,1-b][1,3]oxazol-5-yl]pyrimidin-2-yl}amino)piperidin-1-yl]-2-oxoethyl}acetamide]: the inhibition at 10 µM came to 29%.

Take `CC(=O)NC(CO)C(=O)N1CCC(Nc2nccc(-c3c(-c4ccc(F)cc4)nc4occn34)n2)CC1` (centres unmarked) [Example 212, N-[2-[4-({4-[6-(4-fluorophenyl)imidazo[2,1-b][1,3]oxazol-5-yl]pyrimidin-2-yl}amino)piperidin-1-yl]-1-(hydroxymethyl)-2-oxoethyl]acetamide]: the inhibition at 10 µM worked out at 43%. In general, IC50 refers to the concentration that inhibits the measured activity by half. `CCNC(=O)N1CCC(Nc2nccc(-c3c(-c4cccc(OC)c4)nc4sccn34)n2)CC1` [Example 213, N-ethyl-4-({4-[6-(3-methoxyphenyl)imidazo[2,1-b][1,3]thiazol-5-yl]pyrimidin-2-yl}amino)piperidine-1-carboxamide]: the half-maximal inhibitory concentration (IC50) stood at 2040 nM. The same measure, in the same setting: under `COc1cccc(-c2nc3sccn3c2-c2ccnc(NC3CCN(S(=O)(=O)c4ccc(F)cc4)CC3)n2)c1` [Example 214, N-{1-[(4-fluorophenyl)sulfonyl]piperidin-4-yl}-4-[6-(3-methoxyphenyl)imidazo[2,1-b][1,3]thiazol-5-yl]pyrimidin-2-amine] stands 392 nM. For the compound `Cc1ccnc(SCC(=O)N2CCC(Nc3nccc(-c4c(-c5ccc(F)cc5)nc5occn45)n3)CC2)n1` [Example 215, 4-[6-(4-fluorophenyl)imidazo[2,1-b][1,3]oxazol-5-yl]-N-(1-{[(4-methylpyrimidin-2-yl)thio]acetyl}piperidin-4-yl)pyrimidin-2-amine], the inhibition at 10 µM is 40%. Consider `COc1cccc(-c2nc3sccn3c2-c2ccnc(NC3CCN(C(=O)Nc4ccc(N(C)C)cc4)CC3)n2)c1` [Example 216, N-[4-(dimethylamino)phenyl]-4-({4-[6-(3-methoxyphenyl)imidazo[2,1-b][1,3]thiazol-5-yl]pyrimidin-2-yl}amino)piperidine-1-carboxamide], for which the inhibition at 10 µM came out at 58%. Same read-out and setting: then `O=S(=O)(c1ccc(F)cc1)N1CCC(Nc2nccc(-c3c(-c4ccc(F)c(F)c4)nc4sccn34)n2)CC1` [Example 217, 4-[6-(3,4-difluorophenyl)imidazo[2,1-b][1,3]thiazol-5-yl]-N-{1-[(4-fluorophenyl)sulfonyl]piperidin-4-yl}pyrimidin-2-amine], with 48%. For `CCNC(=O)N1CCC(Nc2nccc(-c3c(-c4ccc(F)c(F)c4)nc4sccn34)n2)CC1` [Example 218, 4-({4-[6-(3,4-difluorophenyl)imidazo[2,1-b][1,3]thiazol-5-yl]pyrimidin-2-yl}amino)-N-ethylpiperidine-1-carboxamide], the IC50 is 1220 nM.

With `Cc1cn2c(-c3ccnc(NC4CCN(S(=O)(=O)c5ccc(F)cc5)CC4)n3)c(-c3ccc(F)cc3)nc2s1` [Example 219, 4-[6-(4-fluorophenyl)-2-methylimidazo[2,1-b][1,3]thiazol-5-yl]-N-{1-[(4-fluorophenyl)sulfonyl]piperidin-4-yl}pyrimidin-2-amine], the IC50 turned out to be 51 nM. As to `CCNC(=O)N1CCC(Nc2nccc(-c3c(-c4ccc(F)cc4)nc4sc(C)cn34)n2)CC1` [Example 220, N-ethyl-4-({4-[6-(4-fluorophenyl)-2-methylimidazo[2,1-b][1,3]thiazol-5-yl]pyrimidin-2-yl}amino)piperidine-1-carboxamide], the IC50 turned out to be 428 nM. On to `CN(C)c1ccc(C(=O)N2CCC(Nc3nccc(-c4c(-c5ccc(F)c(F)c5)nc5sccn45)n3)CC2)cc1` [Example 221, 4-[6-(3,4-difluorophenyl)imidazo[2,1-b][1,3]thiazol-5-yl]-N-{1-[4-(dimethylamino)benzoyl]piper-idin-4-yl}pyrimidin-2-amine], for which the inhibition at 10 µM came out at 42%. On the same count and under the same terms, then `CN(C)c1ccc(C(=O)N2CCC(Nc3nccc(-c4c(-c5ccc(F)cc5)nc5occn45)n3)CC2)cc1` [Example 222, N-{1-[4-(dimethylamino)benzoyl]piperidin-4-yl}-4-[6-(4-fluorophenyl)imidazo[2,1-b][1,3]oxazol-5-yl]pyrimidin-2-amine], with 45%. On the same count and under the same terms, under `Fc1ccc(-c2nc3sccn3c2-c2ccnc(NC3CCNCC3)n2)cc1F` [Example 223, 4-[6-(3,4-difluorophenyl)imidazo[2,1-b][1,3]thiazol-5-yl]-N-piperidin-4-ylpyrimidin-2-amine] stands 71%; under `Cc1cn2c(-c3ccnc(NC4CCNCC4)n3)c(-c3ccc(F)cc3)nc2s1` [Example 224, 4-[6-(4-fluorophenyl)-2-methylimidazo[2,1-b][1,3]thiazol-5-yl]-N-piperidin-4-ylpyrimidin-2-amine], 70%; under `Cc1cn2c(-c3ccnc(NC4CCN(C(=O)Nc5ccc(N(C)C)cc5)CC4)n3)c(-c3ccc(F)cc3)nc2s1` [Example 225, N-[4-(dimethylamino)phenyl]-4-({4-[6-(4-fluorophenyl)-2-methylimidazo[2,1-b][1,3]thiazol-5-yl]pyrimidin-2-yl}amino)piperidine-1-carboxamide], 38%.

As for `CN(C)c1ccc(NC(=O)N2CCC(Nc3nccc(-c4c(-c5ccc(F)c(F)c5)nc5sccn45)n3)CC2)cc1` [Example 226, 4-({4-[6-(3,4-difluorophenyl)imidazo[2,1-b][1,3]thiazol-5-yl]pyrimidin-2-yl}amino)-N-[4-(dimethylamino)phenyl]piper-idine-1-carboxamide], the inhibition at 10 µM worked out at 61%.

Consider `COc1ccc(Cl)cc1S(=O)(=O)N1CCC(Nc2nccc(-c3c(-c4ccc(F)cc4)nc4occn34)n2)CC1` [Example 227, N-{1-[(5-chloro-2-methoxyphenyl)sulfonyl]piper-idin-4-yl}-4-[6-(4-fluorophenyl)imidazo[2,1-b][1,3]oxazol-5-yl]pyrimidin-2-amine], for which the inhibition at 10 µM was found to be 27%. On the same count and under the same terms, then `CC(=O)Nc1nc(C)c(S(=O)(=O)N2CCC(Nc3nccc(-c4c(-c5ccc(F)cc5)nc5occn45)n3)CC2)s1` [Example 228, N-(5-{(4-({4-[6-(4-fluorophenyl)imidazo[2,1-b][1,3]oxazol-5-yl]pyrimidin-2-yl}amino)piperidin-1-yl]sulfonyl}-4-methyl-1,3-thiazol-2-yl)acetamide], with 40%. Regarding `O=C(O)c1ccc(S(=O)(=O)N2CCC(Nc3nccc(-c4c(-c5ccc(F)cc5)nc5occn45)n3)CC2)cc1` [Example 229, 4-{[4-({4-[6-(4-fluorophenyl)imidazo[2,1-b][1,3]oxazol-5-yl]pyrimidin-2-yl}amino)piperidin-1-yl]sulfonyl)benzoic acid], the IC50 was 1370 nM.

Take `Cc1nc(C)c(S(=O)(=O)N2CCC(Nc3nccc(-c4c(-c5ccc(F)cc5)nc5occn45)n3)CC2)s1` [Example 230, N-{1-[(2,4-dimethyl-1,3-thiazol-5-yl)sulfonyl]piperidin-4-yl)-4-[6-(4-fluorophenyl)imidazo[2,1-b][1,3]oxazol-5-yl]pyrimidin-2-amine]: the inhibition at 10 µM was determined as 50%.

On to `COc1cccc(S(=O)(=O)N2CCC(Nc3nccc(-c4c(-c5ccc(F)cc5)nc5occn45)n3)CC2)c1` [Example 231, 4-[6-(4-fluorophenyl)imidazo[2,1-b][1,3]oxazol-5-yl]-N-{1-[(3-methoxyphenyl)sulfonyl]piperidin-4-yl}pyrimidin-2-amine], for which the IC50 turned out to be 408 nM. With `CCN(C)C(=O)N1CCC(Nc2nccc(-c3c(-c4ccc(F)cc4)nc4sccn34)n2)CC1` [Example 232, N-ethyl-4-({4-[6-(4-fluorophenyl)imidazo[2,1-b][1,3]thiazol-5-yl]pyrimidin-2-yl}amino)-N-methylpiperidine-1-carboxamide], the inhibition at 10 µM turned out to be 56%.

As to `COc1cccc(-c2nc3sccn3c2-c2ccnc(NC3CCN(C(=O)NCc4ccccc4)CC3)n2)c1` [Example 233, N-benzyl-4-({4-[6-(3-methoxyphenyl)imidazo[2,1-b][1,3]thiazol-5-yl]pyrimidin-2-yl}amino)piperidine-1-carboxamide], the inhibition at 10 µM was found to be 53%. With `COc1cccc(-c2nc3sccn3c2-c2ccnc(NC3CCN(C(=O)NCc4ccco4)CC3)n2)c1` [Example 234, N-(2-furylmethyl)-4-({4-[6-(3-methoxyphenyl)imidazo[2,1-b][1,3]thiazol-5-yl]pyrimidin-2-yl}amino)piperidine-1-carboxamide], the IC50 was determined as 825 nM. On to `Cc1ccccc1S(=O)(=O)N1CCC(Nc2nccc(-c3c(-c4ccc(F)cc4)nc4occn34)n2)CC1` [Example 235, 4-[6-(4-fluorophenyl)imidazo[2,1-b][1,3]oxazol-5-yl]-N-{1-[(2-methylphenyl)sulfonyl]piperidin-4-yl}pyrimidin-2-amine], for which the inhibition at 10 µM was 30%.

As to `O=S(=O)(c1c(F)cccc1F)N1CCC(Nc2nccc(-c3c(-c4ccc(F)cc4)nc4occn34)n2)CC1` [Example 236, N-{1-[(2,6-difluorophenyl)sulfonyl]piperidin-4-yl}-4-[6-(4-fluorophenyl)imidazo[2,1-b][1,3]oxazol-5-yl]pyrimidin-2-amine], the inhibition at 10 µM amounted to 30%. The compound `O=S(=O)(c1cccc(F)c1)N1CCC(Nc2nccc(-c3c(-c4ccc(F)cc4)nc4occn34)n2)CC1` [Example 237, 4-[6-(4-fluorophenyl)imidazo[2,1-b][1,3]oxazol-5-yl]-N-{1-[(3-fluorophenyl)sulfonyl]piper-idin-4-yl}pyrimidin-2-amine] yielded an inhibition at 5 µM (@ 5 uM) of 85%. As for `O=S(=O)(c1ccc(Oc2ccccc2)cc1)N1CCC(Nc2nccc(-c3c(-c4ccc(F)cc4)nc4occn34)n2)CC1` [Example 238, 4-[6-(4-fluorophenyl)imidazo[2,1-b][1,3]oxazol-5-yl]-N-{1-[(4-phenoxyphenyl)sulfonyl]piper-idin-4-yl}pyrimidin-2-amine], the 50% inhibitory concentration (IC50) was over 10000 nM.

`O=S(=O)(c1ccc(C(F)(F)F)cc1)N1CCC(Nc2nccc(-c3c(-c4ccc(F)cc4)nc4occn34)n2)CC1` [Example 239, 4-[6-(4-fluorophenyl)imidazo[2,1-b][1,3]oxazol-5-yl]-N-(1-{[4-(trifluoromethyl)phenyl]sulfonyl}piperidin-4-yl)pyrimidin-2-amine]: for the setting “@ 3 uM”, the inhibition at 3 µM is 52%.
